Experimental data taken from US20250082585A1, “METHOD FOR STORING REDUCED COENZYME Q10” (KANEKA CORPORATION, priority 2021, published 2025).

Test: Evaluation of oxidation stability (QH residual rate after storage, QH ratio by HPLC)
Format: physicochemical
Protocol: The weight ratio of reduced coenzyme Q10 to total coenzyme Q10 (namely, reduced coenzyme Q10/(oxidized coenzyme Q10+reduced coenzyme Q10)) is defined as “QH ratio”. The QH ratio was determined by the following HPLC analysis. For the evaluation of oxidation stability, a rate of the change in the QH ratio at the end of the evaluation from that at the beginning of the evaluation was defined as “QH residual rate”, and the QH residual rate determined by the following expression was used as a measure of oxidation stability.
QH residual rate (%)=100×QH ratio at the end of the evaluation/QH ratio at the beginning of the evaluation […]
In a glass vial (volume 33 ml), 0.1 g of the QH Form I crystal was placed. […] The glass vial was sealed, and stored under a temperature of 40° C. and a relative humidity of 75% for 2 weeks, after which the QH residual rate was determined.
In a glass vial, 0.2 g of the QH Form I crystal was placed. The glass vial was opened, and stored under a temperature of 40° C. and a relative humidity of 11% for 2 weeks, after which the QH residual rate was determined.
In a glass vial (volume 33 ml), 0.1 g of the QH Form I crystal was placed. […] The glass vial was sealed, and stored under a temperature of 25° C. and a relative humidity of 60% for 4 weeks, after which the QH residual rate was determined. […]

Compound: COc1c(O)c(C)c(C/C=C(\C)CC/C=C(\C)CC/C=C(\C)CC/C=C(\C)CC/C=C(\C)CC/C=C(\C)CC/C=C(\C)CC/C=C(\C)CC/C=C(\C)CCC=C(C)C)c(O)c1OC [Comparative Example 1, reduced coenzyme Q10]
- QH residual rate (0.2 g QH Form I crystal without water, opened glass vial, 40° C., relative humidity 11%, 2 weeks): 34.9%

Compound: COc1c(O)c(C)c(C/C=C(\C)CC/C=C(\C)CC/C=C(\C)CC/C=C(\C)CC/C=C(\C)CC/C=C(\C)CC/C=C(\C)CC/C=C(\C)CC/C=C(\C)CCC=C(C)C)c(O)c1OC [Comparative Example 2, reduced coenzyme Q10]
- QH residual rate (0.1 g QH Form I crystal, with aqueous solution of Table 3 or without (comparative), sealed glass vial, 25° C., relative humidity 60%, 4 weeks): 33.3%
